Earlier results in article PMC3477139 (PLoS ONE, 2012).

System: GLP-1R
Settings: unclear whether additivity or true potentiation; ref [33]; cited from earlier work

In the case of `CC(C)(C)Nc1nc2cc(Cl)c(Cl)cc2nc1S(C)(=O)=O` [compound 2, 6,7-dichloro-2-methylsulfonyl-3-N-tert-butylaminoquinoxaline], the “effect on activity of GLP-1 9–36 amide” value is given as “may increase the activity of GLP-1 9–36 amide”.
